Measured values reported in paper PMC8216447, “Factors affecting the buccal delivery of deformable nanovesicles based on insulin–phospholipid complex: an in vivo investigation” (Drug Delivery, 2020).

Tested on: normal rabbits
Test: In vivo hypoglycemic effect, rabbit esophageal ligation model
Details: insulin solution 3 mg/mL
Description: The relative pharmacological bioactivity of insulin delivered via the transmucosal route by IPC-DNVs in different drug doses, delivery sites, ligation times, drug concentrations, sizes, and deformabilities was evaluated in normal rabbits by assessing the hypoglycemic effects. […] After fasting for 2 h, the rabbits were weighed and anesthetized with pentobarbital (2%, 50 mg/kg) through the ear margin vein. During anesthesia, the animals were restrained in a supine position to a board. The esophagus was surgically ligated to prevent swallowing. The drug solution for buccal administration (oral mucosa) was divided into four parts; two parts for administration via sublingual mucosa, and two parts for administration via left and right buccal mucosa. The sublingual mucosa and the buccal mucosa groups were administered only to the sublingual mucosa or buccal mucosa. After administration of the drug solution for 30 min (except the group with ligation time of 15 min), the esophagus was untied, and the response of the animals was observed. Blood samples were collected from the ear veins at predetermined time intervals (0, 0.5, 1, 1.5, 2, 2.5, 3, 3.5, 4, 4.5, 5, and 6 h) after DNVs administration and blood glucose levels were measured using a Blood Analyzer (ONETOUCH Ultra; Johnson & Johnson, New Brunswick, NJ, USA). […]

Q: “Recombinant human insulin [insulin solution]” was tested. Which hypoglycemic effect (1 IU/kg, subcutaneous administration) did it give?
A: Its hypoglycemic effect is “evident”.

Q: And the “glucose levels within 6 h after buccal administration” value (10 IU/kg, buccal administration (control))?
A: The value was “barely changed”.
